According to US9226929B2, “Pharmaceutically active disubstituted triazine derivatives” (Bayer Intellectual Property GMBH, priority 2011, dated 2016):

Key:
Format in all cases: cell-based
[1] = test system: LPS-induced TNF alpha release in PBMCs; assay: TNF alpha Release Assay; details: Homo sapiens, PBMC, 1 μg/mL LPS, 6 h, read-out: TNF alpha release (activity range), IC50
Experimental: 3.3 TNF alpha Release Assay
Freshly isolated peripheral blood mononuclear cells (PBMCs) were seeded in 96-well cell culture plates with 200,000 cells in 100 μl cell culture medium (DMEM cell culture medium+glutamine from PAN Biotech GmbH, Aidenbach, Germany) supplemented with 10% fetal calf serum (PAA Laboratories GmbH, Pasching, Austria) per well and incubated overnight at 37° C., 5% CO2. To each well, 100 μL cell culture medium with 2× concentrated test compounds diluted from 10 mM DMSO stocks, or 100 μL DMEM with 0.4% DMSO for control wells, was added. The compounds of general formula (I) summarized in Table 6 were used in this assay. After incubation for 1 h at 37° C., 5% CO2, cells were stimulated with 1 μg/mL LPS (Lipopolysaccharides, Sigma, catalog #L4391-1 MG; 1 mg/ml stock solution), or left untreated for negative controls, and plates were incubated for 6 h at 37° C./5% CO2. The cell culture plates were centrifuged at 2000 rpm for 5 minutes, and supernatants were transferred to fresh 96-well polypropylene plates. 25 μL of supernatants were transferred into 96-well-plates of the human TNF alpha-tissue culture kit (Meso Scale Discovery, Gaithersburg, Md., USA), and manufacturer's instructions were followed for analysis of TNF alpha levels. […]

Hela cells = assay: Cell Viability Assay, Hela cells; details: Homo sapiens, 72 h, Cell Titer Glo, read-out: Cell Viability - Hela cells (activity range), IC50
Experimental: (§1) 3.4 Cell Viability Assays
(§2) Hela- or MDAMB468-Cells were maintained in RPMI 1640 or McCoy's 5A cell culture medium+glutamine (PAN Biotech GmbH, Aidenbach, Germany; order no. PO4-22100; PO4-05500) supplemented with 10% fetal calf serum “Gold” (PAA Laboratories GmbH, Pasching, Austria; order no. A15-151) and grown at 37° C., 5% CO2. For the cell viability assay, cells were seeded with a density of 400 (Hela cells, DSMZ Braunschweig order no. ACC57) or 800 (MDAMB468 cells, ATCC order no. HTB-132) per well in 25 μL in 384-well plates (Greiner Bio-One, Frickenhausen, Germany; order no. 781080). After overnight incubation at 37° C./5% CO2, 25 nL or 75 nL compound were added to each sample well by using BIOMEK FXP Laboratory Automation Workstation (Beckman Coulter, USA). Wells with cells and 0.1% or 0,3% DMSO in culture medium were used as positive controls, wells with cells and 10 μM staurosporine in culture medium were used as negative controls. The cells were incubated with the compounds for 72 h at 37° C./5% CO2. For measurement of cell viability 25 μL Cell Titer Glo reagent (Promega, Madison, USA; order no. G7573), 1:2 diluted with cell culture medium, was added to each well. The 384we11-plates were placed for 2 min on a orbital microplate shaker and incubated for further 10 min at room temperature to stabilize the luminescence signal.
(§3) Luminescence was measured by Envision Plate Reader (Perkin Elmer, USA). IC50 values were calculated with the software Excel Fit (IDBS, Guildford, UK) from 3-fold dilution series comprising at least 8 concentrations in duplicates.

MDAMB468 cells = assay: Cell Viability Assay, MDAMB468 cells; details: Homo sapiens, MDA-MB-468; 72 h, Cell Titer Glo; read-out: Cell Viability - MDAMB468 cells (activity range), IC50
Experimental: as §1, §2, §3

SMILES | IC50 [1] [µM] | IC50 (Hela cells) [µM] | IC50 (MDAMB468 cells) [µM]
NS(=O)(=O)Cc1cccc(Nc2ncnc(N3CCCCC3)n2)c1 [Compound B1, 3-[(4-(Piperidin-1-yl)-1,3,5-triazin-2-yl)amino]benzenemethane sulfonamide] | > 10 |  | 
COC[C@H]1CCCN1c1ncnc(Nc2cccc(CS(N)(=O)=O)c2)n1 [Compound B17, (R)-3-[(4-(2-(Methoxymethyl)pyrrolidin-1-yl)-1,3,5-triazin-2-yl)amino]benzenemethanesulfonamide] | 1 to 10 |  | 
NS(=O)(=O)Cc1cccc(Nc2ncnc(N3CCc4nc[nH]c4C3)n2)c1 [Compound B44, 3-[(4-(6,7-Dihydro-3H-imidazo[4,5-c]pyridin-5(4H)-yl)-1,3,5-triazin-2-yl)amino]benzenemethanesulfonamide] |  | > 10 | > 10
NS(=O)(=O)Cc1cccc(Nc2ncnc(N3CCc4ncsc4C3)n2)c1 [Compound B45, 3-[(4-(6,7-Dihydrothiazolo[5,4-c]pyridin-5(4H)-yl)-1,3,5-triazin-2-yl)amino]benzenemethanesulfonamide] |  | 1 to 10 | 1 to 10
NS(=O)(=O)Cc1cccc(Nc2ncnc(N3Cc4cn[nH]c4C3)n2)c1 [Compound B51, 3-[(4-(Pyrrolo[3,4-c]pyrazol-5(1H,4H,6H)-yl)-1,3,5-triazin-2-yl)amino]-benzenemethanesulfonamide] |  | > 10 | > 10
